Measured values: patent US20030012820A1, “Compressible guaifenesin compositions, method for making same and method for making compressed guaifenesin dosage forms therefrom” (priority 2001, published 2003)

Assays:
[1] = Particle size distribution by sieve analysis; assay type: physicochemical
Excerpt: USP grade guaifenesin powders GP-A, GP-B, GP-C and GP-D having the respective particle size distributions set forth below, were used in the examples. Guaifenesin powder GP-A was made by Rhodia Inc., guaifenesin powders GP-B, GP-C and GP-D were obtained from other commercial sources. In the tables below, the result “% R” for a sample means the amount of sample retained on the corresponding screen size set forth in the table, expressed as a percent by weight of the total sample amount, and the result “% CR” for a sample means the cumulative amount of the sample retained on all screen sizes larger than the corresponding screen size, expressed as a percent by weight of the total sample amount.
(§1) The particle size distribution, bulk density, moisture content and flow properties were measured for each of the compositions of Examples 1-10 and for Comparison Examples C1-C4. Comparison Examples C1-C4 were commercially available directly compressible guaifenesin compositions. Particle size distribution was measured by sieve analysis using screens of the indicated mesh sizes. Bulk density was measured using a VanKel cylinder. Moisture content was measured by Karl Fischer titration. Flow properties were measured using a VanKel flowmeter with a strip chart recorder. […] Results are given below in TABLES 1A, 1B and 1C

[2] = Bulk density, VanKel cylinder; assay type: physicochemical
Method: as §1

Structure (SMILES) | % CR (cumulative amount retained) ([1]; US Mesh 20 (850 μm)) | % R (amount retained on screen) ([1]; US Mesh 20 (850 μm)) | % CR (cumulative amount retained) ([1]; US Mesh 40 (425 μm)) | % R (amount retained on screen) ([1]; US Mesh 40 (425 μm)) | % CR (cumulative amount retained) ([1]; US Mesh 60 (250 μm)) | % R (amount retained on screen) ([1]; US Mesh 60 (250 μm)) | % CR (cumulative amount retained) ([1]; US Mesh 80 (180 μm)) | % R (amount retained on screen) ([1]; US Mesh 80 (180 μm)) | % CR (cumulative amount retained) ([1]; US Mesh 100 (150 μm)) | % R (amount retained on screen) ([1]; US Mesh 100 (150 μm)) | % CR (cumulative amount retained) ([1]; US Mesh 200 (75 μm)) | % R (amount retained on screen) ([1]; US Mesh 200 (75 μm)) | % CR (cumulative amount retained) ([1]; US Mesh 325 (45 μm)) | % R (amount retained on screen) ([1]; US Mesh 325 (45 μm)) | % CR (cumulative amount retained) ([1]; pan (<45 μm)) | % R (amount retained) ([1]; pan (<45 μm)) | Bulk Density [2]
COc1ccccc1OCC(O)CO (single isomer, unassigned) [GP-A, guaifenesin] | 0% | 0% | 0% | 0% | 0.8% | 0.8% | 3.2% | 2.4% | 7.6% | 4.4% | 38.4% | 30.8% | 76.8% | 38.4% | 100% | 23.2% | 0.45 g/cc
COc1ccccc1OCC(O)CO (single isomer, unassigned) [GP-B, guaifenesin] | 0% | 0% | 0.4% | 0.4% | 0.4% | 0% | 2.4% | 2.0% | 3.2% | 0.8% | 11.2% | 8.0% | 58.0% | 46.8% | 100% | 42.0% | 0.41 g/cc
COc1ccccc1OCC(O)CO (single isomer, unassigned) [GP-C, guaifenesin] | 0% | 0% | 2.0% | 2.0% | 3.2% | 1.2% | 3.2% | 0% | 4.0% | 0.8% | 11.2% | 7.2% | 77.6% | 66.4% | 100% | 22.4% | 0.35 g/cc
COc1ccccc1OCC(O)CO (single isomer, unassigned) [GP-D, guaifenesin] | 0% | 0% | 0% | 0% | 0% | 0% | 3.2% | 3.2% | 9.6% | 6.4% | 60.0% | 50.4% | 89.6% | 29.6% | 100% | 10.4% | 0.40 g/cc
